Laboratory results: patent US9663495B2 (YUHAN CORPORATION, priority 2013, dated 2017)

How the values were obtained:
GPR119 [1] = target: T1, GPR119 (Homo sapiens, UniProt Q8TDV5); assay: cAMP Accumulation Assay (GPR119 CRE-bla CHO-K1 cells, LiveBLAzer-FRET B/G); assay type: cell-based; conditions: for EC50: 5 hours incubation; for Emax (Fold): maximum activity, response ratio versus non-treated control group
T1 construct: host or cells: CHO-K1 (GPR119 CRE-bla, doxycycline-induced)
T1 sequence (Q8TDV5 1-335): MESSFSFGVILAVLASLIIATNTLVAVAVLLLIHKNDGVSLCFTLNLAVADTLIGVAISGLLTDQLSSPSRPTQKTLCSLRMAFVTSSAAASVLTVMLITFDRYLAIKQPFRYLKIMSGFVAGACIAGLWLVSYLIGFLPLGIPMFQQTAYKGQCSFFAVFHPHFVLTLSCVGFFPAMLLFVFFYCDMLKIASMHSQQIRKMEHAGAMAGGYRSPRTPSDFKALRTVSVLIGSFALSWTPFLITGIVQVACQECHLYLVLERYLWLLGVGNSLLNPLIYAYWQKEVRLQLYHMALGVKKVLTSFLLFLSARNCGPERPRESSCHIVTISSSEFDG
Description: 32 μl of an assay medium (DMEM supplemented with GlutaMax™ 99%, dialyzed FBS 1%, non-essential amino acid 1 mM, HEPES 25 mM, penicillin 100 U/ml, and streptomycin 100 μg/ml) was added to each well of a 384 black well plate and then the GPR119 CRE-bla CHO-K1 cells (Invitrogen) were seeded in 1×10^4 cells per well. Doxycycline was dissolved in the assay medium in the concentration of 1 μg/ml. The resulting solution (4 μl) was added to each well, which was then incubated in a 5% CO 2 incubator at 37° C. for about 20 to 24 hours. Each test compounds were diluted with the assay medium to prepare 10 samples, which have concentrations ranging from […], respectively. Each samples (8 μl) was added to each well, which was then incubated in a 5% CO2 incubator at 37° C. for 5 hours. In case of the control group, the well was treated with a solution (8 μl) prepared by diluting dimethyl sulfoxide (DMSO) in the assay medium to 1%. The substrate mixture (8 μl) was added to each well, which was then left under darkness at room temperature for 2 hours. The substrate mixture contains the followings: 1 mM LiveBLAzer™-FRET B/G(CCF4-AM) substrate 6 μl, solution B 60 μl, solution C 904 μl, and solution D 30 μl.
Fluorescence intensity was determined under the wavelength conditions of 400 nm/465 nm (excitation/emission) for the blue channel and 400 nm/535 nm (excitation/emission) for the green channel, with the fluorescence microplate reader (SpectraFluor Plus. TECAN). The net activity of each well was calculated by subtracting the average value of the cell-free control group from the value of the unstimulated (i.e., non-treated) control group or the stimulated (i.e., test compound-treated) group at each wavelength. MBX-2982 (Metabolex) was used as a control drug. The response ratio was calculated by dividing the net signal ratio (465 nm/535 nm) of the control drug or the test compound by the net signal ratio (465 nm/535 nm) of the non-treated control group. The relative ratio (R.R) was calculated by dividing the maximum activity [Emax (fold)] of the test compound (i.e., % activity in comparison with the background) by the maximum activity [Emax (fold)] of the control drug (MBX-2982) [Emax (% RR)=(Emax of the test compound/Emax of MBX-2982)×100]. EC50 (half maximal effective concentration) was calculated using the software for statistical analysis “Prism 5.0 (GraphPad)”, based on the values obtained according to concentrations of the test compounds.

GPR119 [2] = target: T1, GPR119; assay: as above; assay type: cell-based; conditions: (Emax of the test compound/Emax of MBX-2982)x100, 5 hours incubation

Compound	EC50 (GPR119 [1])	Emax (Fold) (GPR119 [1])	Emax (% RR) (GPR119 [2])
CCc1cnc(N2CCN(c3ncc(-c4ccc(-n5cnn(CCOC)c5=O)c(F)c4)cc3C#N)CC2)nc1 [Example 31, 5-(4-(1-(2-methoxyethyl)-5-oxo-1H-1,2,4-triazol-4(5H)-yl)-3-fluorophenyl)-2-(4-(5-ethylpyrimidin-2-yl)piperazin-1-yl)nicotinonitrile]	10 nM	3.4 Fold	148.7 % RR
CCc1cnc(N2CCN(c3ncc(-c4ccc(-n5cnn(CC#N)c5=O)c(F)c4)cc3C#N)[C@@H](C)C2)nc1 [Example 18, (S)-5-(4-(1-(cyanomethyl)-5-oxo-1H-1,2,4-triazol-4(5H)-yl)-3-fluorophenyl)-2-(4-(5-ethylpyrimidin-2-yl)-2-methylpiperazin-1-yl)nicotinonitrile]	17 nM	2.9 Fold	104.6 % RR
COCCn1ncn(-c2ccc(-c3cnc(N4CCC(c5nnc(C(F)(F)F)o5)CC4)c(C#N)c3)cc2F)c1=O [Example 76, 5-(3-fluoro-4-(1-(2-methoxyethyl)-5-oxo-1H-1,2,4-triazol-4(5H)-yl)phenyl)-2-(4-(5-(trifluoromethyl)-1,3,4-oxadiazol-2-yl)piperidin-1-yl)nicotinonitrile]	19.6 nM	2.9 Fold	101.8 % RR
CC(C)c1nc(N2CCN(c3ncc(-c4ccc(-n5cnn(C)c5=O)c(F)c4)cc3C#N)CC2)no1 [Example 45, 5-(3-fluoro-4-(1-methyl-5-oxo-1H-1,2,4-triazol-4(5H)-yl)phenyl)-2-(4-(5-isopropyl-1,2,4-oxadiazol-3-yl)piperazin-1-yl)nicotinonitrile]	7.3 nM	4.2 Fold	144.7 % RR
CCc1cnc(N2CCN(c3ncc(-c4ccc(-n5cnn(C)c5=O)cc4)cc3C#N)CC2)nc1 [Example 39, 2-(4-(5-ethylpyrimidin-2-yl)piperazin-1-yl)-5-(4-(1-methyl-5-oxo-1H-1,2,4-triazol-4(5H)-yl)phenyl)nicotinonitrile]	3.8 nM	3.9 Fold	133.6 % RR
CCc1cnc(N2CCN(c3ncc(-c4ccc(-n5cnn(CCN(C(=O)OC(C)(C)C)C(C)C)c5=O)c(F)c4)cc3C#N)[C@@H](C)C2)nc1 [Example 19, (S)-tert-butyl 2-(4-(4-(5-cyano-6-(4-(5-ethylpyrimidin-2-yl)-2-methylpiperazin-1-yl)pyridin-3-yl)-2-fluorophenyl)-5-oxo-4,5-dihydro-1H-1,2,4-triazol-1-yl)ethyl(isopropyl)carbamate]	5.4 nM	3.5 Fold	113.0 % RR
CC(C)n1ncn(-c2ccc(-c3cnc(N4CCN(C(=O)OC(C)(C)C)C[C@@H]4C)nc3)cc2F)c1=O [Example 3, (S)-tert-butyl 4-(5-(3-fluoro-4-(1-isopropyl-5-oxo-1H-1,2,4-triazol-4(5H)-yl)phenyl)pyrimidin-2-yl)-3-methylpiperazin-1-carboxylate]	62 nM	3.4 Fold	113.4 % RR
CC(C)c1nc(C2CCN(c3ncc(-c4ccc(-n5cnn(CN6CCCC6)c5=O)c(F)c4)cc3C#N)CC2)no1 [Example 68]	2.6 nM	3.8 Fold	130.8 % RR
CCc1cnc(N2CCN(c3ncc(-c4ccc(-n5cnn(CCNC(C)C)c5=O)c(F)c4)cc3C#N)[C@@H](C)C2)nc1.Cl [Example 20, (S)-2-(4-(5-ethylpyrimidin-2-yl)-2-methylpiperazin-1-yl)-5-(3-fluoro-4-(1-(2-(isopropylamino)ethyl)-5-oxo-1H-1,2,4-triazol-4(5H)-yl)phenyl)nicotinonitrile hydrochloride]	5.6 nM	3.1 Fold	109.6 % RR

Further compounds by falling EC50 (GPR119 [1]), results first:

EC50 (GPR119 [1])	Emax (Fold) (GPR119 [1])	Emax (% RR) (GPR119 [2])	Compound
114 nM	2.9 Fold	102.0 % RR	CCc1cnc(N2CCN(c3ncc(-c4ccc(-n5cnn(CC(=O)OC)c5=O)c(F)c4)cc3C#N)[C@@H](C)C2)nc1 [Example 13, (S)-methyl 2-(4-(4-(5-cyano-6-(4-(5-ethylpyrimidin-2-yl)-2-methylpiperazin-1-yl)pyridin-3-yl)-2-fluorophenyl)-5-oxo-4,5-dihydro-1H-1,2,4-triazol-1-yl)acetate]
54.9 nM	3.5 Fold	108.0 % RR	COCCn1ncn(-c2ccc(-c3cnc(N4CCN(C(=O)OC(C)(C)C)C[C@@H]4C)nc3)cc2F)c1=O [Example 4, (S)-tert-butyl 4-(5-(3-fluoro-4-(1-(2-methoxyethyl)-5-oxo-1H-1,2,4-triazol-4(5H)-yl)phenyl)pyrimidin-2-yl)-3-methylpiperazin-1-carboxylate]
26 nM	2.5 Fold	111.5 % RR	CCc1cnc(N2CCN(c3ncc(-c4ccc(-n5cnn(C)c5=O)c(F)c4)cn3)[C@@H](C)C2)nc1 [Example 7, (S)-4-(4-(2-(4-(5-ethylpyrimidin-2-yl)-2-methylpiperazin-1-yl)pyrimidin-5-yl)-2-fluorophenyl)-1-methyl-1H-1,2,4-triazol-5(4H)-one]
16 nM	2.6 Fold	105.4 % RR	CC(C)n1ncn(-c2ccc(-c3cnc(N4CCC(N(C)C(=O)OC(C)(C)C)CC4)c(C#N)c3)cc2F)c1=O [Example 58, tert-butyl 1-(3-cyano-5-(3-fluoro-4-(1-isopropyl-5-oxo-1H-1,2,4-triazol-4(5H)-yl)phenyl)pyridin-2-yl)piperidin-4-yl(methyl)carbamate]
7.3 nM	4.2 Fold	144.7 % RR	CCCn1ncn(-c2ccc(-c3cnc(N4CCN(c5noc(C(C)C)n5)CC4)c(C#N)c3)cc2F)c1=O.Cl [Example 49, 5-(3-fluoro-4-(5-oxo-1-propyl-1H-1,2,4-triazol-4(5H)-yl)phenyl)-2-(4-(5-isopropyl-1,2,4-oxadiazol-3-yl)piperazin-1-yl)nicotinonitrile hydrochloride]
5 nM	2.5 Fold	113.4 % RR	C[C@H]1CN(c2ccc(C(F)(F)F)cn2)CCN1c1ncc(-c2ccc(-n3cnn(C)c3=O)c(F)c2)cn1 [Example 8, (S)-4-(2-fluoro-4-(2-(2-methyl-4-(5-(trifluoromethyl)pyridin-2-yl)piperazin-1-yl)pyrimidin-5-yl)phenyl)-1-methyl-1H-1,2,4-triazol-5(4H)-one]
2.4 nM	3.6 Fold	123.8 % RR	CCn1ncn(-c2ccc(-c3cnc(N4CCC(c5nc(C(C)C)no5)CC4)c(C#N)c3)cc2)c1=O [Example 65, 5-(4-(1-ethyl-5-oxo-1H-1,2,4-triazol-4(5H)-yl)phenyl)-2-(4-(3-isopropyl-1,2,4-oxadiazol-5-yl)piperidin-1-yl)nicotinonitrile]
2 nM	2.9 Fold	102.0 % RR	CCc1cnc(N2CCN(c3ncc(-c4ccc(-n5cn[nH]c5=O)c(F)c4)cc3C#N)[C@@H](C)C2)nc1 [Example 21, (S)-2-(4-(5-ethylpyrimidin-2-yl)-2-methylpiperazin-1-yl)-5-(3-fluoro-4-(5-oxo-1H-1,2,4-triazol-4(5H)-yl)phenyl)nicotinonitrile]
